From patent US20040192738A1, “2-(Butyl-1-sulfonylamino)-N-[1(R)-(6-methoxypyridin-3-yl)propyl] benzamide, its use as a medicament, and pharmaceutical preparations comprising it” (Aventis Pharma Deutschland GmbH, priority 2003, published 2004)
Where “and” joins values, the source holds several entries; their conditions need not be identical. Identical values can stand only once.

Tests used:
[1] = test system: left atrium of the anesthetized pig; assay: Refractory period and left-atrial vulnerability in the anesthetized pig; assay type: in vivo; details: for % inhibition of the arrhythmias: arrhythmias induced by premature extra-stimulus (S2) in the left atrium, 3 mg/kg; for % inhibition of the arrhythmias / % increase in the refractory period: mean value; for % increase in the refractory period: left atrium, 10 minutes after injection, mean of three rates (150, 200 and 250/min); for antiarrhythmic action: model on the anesthetized pig
Method: Investigation of the Refractory Period and the Left-Atrial Vulnerability in the Pig
In the course of this, the refractory period of the left atrium was determined and the antiarrhythmic activity was recorded as described in the literature (Knobloch et al. 2002. Naunyn-Schmiedberg's Arch. Pharmacol. 366; 482-487). The anti-arrhythmic action relates here to the inhibition of the occurrence of episodes of arrhythmias which are induced by a prematurely placed extra-stimulus (S2) in the left atrium (=left-atrial vulnerability).
The refractory period values are stated in percent of the basal values 10 minutes after injection. Mean values for the refractory periods are shown from three rates (150, 200 and 250/min).
By repeated measurement after substance administration, the duration of action of a substance on the refractory period can be determined in this experimental procedure. The R enantiomer was infused intravenously over the course of 100 minutes in a dose of 1 mg/kg and the pharmacological action was determined over the course of 280 minutes.

[2] = Effect on QTc interval and inotropic or hemodynamic side effects; details: in vivo
[3] = anesthetized pig, bolus 3 mg/kg

melting point	Structure (SMILES)	duration of action on the left-atrial refractory period after ending the infusion ([1]; anesthetized pig, 1 mg/kg intravenous infusion over 100 minutes, observed over 280 minutes, FIG. 1)	% inhibition of the arrhythmias ([1]; anesthetized pig, bolus 3 mg/kg, listed as R enantiomer)	prolongation of the refractory period (comparison of enantiomers) ([1]; anesthetized pig, bolus 3 mg/kg, result in words)	% increase in the refractory period [1, 3]	antiarrhythmic action ([1]; result in words)	effect on the QTc interval [2]	negative inotropic or hemodynamic side effects [2]	% inhibition of the arrhythmias [1, 3]
97 °C	CCCCS(=O)(=O)Nc1ccccc1C(=O)N[C@H](CC)c1ccc(OC)nc1 [formula I, 2-(butyl-1-sulfonylamino)-N-[1(R)-(6-methoxypyridin-3-yl)propyl]benzamide]	≥ 180 min	73.9%	markedly greater prolongation of the refractory period than the S enantiomer	19%	excellent	no effect	no negative inotropic or hemodynamic side effects	–
–	CCCCS(=O)(=O)Nc1ccccc1C(=O)N[C@@H](CC)c1ccc(OC)nc1 [S enantiomer, 2-(butyl-1-sulfonylamino)-N-[1(S)-(6-methoxypyridin-3-yl)propyl]benzamide]	–	–	–	8.8%	more weakly active	–	–	27% and 27.3%
